Data reported in patent publication US10669258B2, “3-sulfonyl-5-aminopyridine-2,4-diol APJ agonists” (BRISTOL-MYERS SQUIBB COMPANY, priority 2016, dated 2020).
Like-named read-outs stand apart in the source and are kept apart here.

Target: T1, human APJ receptor (Homo sapiens, UniProt P35414)
T1 construct: expressed in transfected cells; host or cells: HEK293
T1 sequence (P35414 1-380): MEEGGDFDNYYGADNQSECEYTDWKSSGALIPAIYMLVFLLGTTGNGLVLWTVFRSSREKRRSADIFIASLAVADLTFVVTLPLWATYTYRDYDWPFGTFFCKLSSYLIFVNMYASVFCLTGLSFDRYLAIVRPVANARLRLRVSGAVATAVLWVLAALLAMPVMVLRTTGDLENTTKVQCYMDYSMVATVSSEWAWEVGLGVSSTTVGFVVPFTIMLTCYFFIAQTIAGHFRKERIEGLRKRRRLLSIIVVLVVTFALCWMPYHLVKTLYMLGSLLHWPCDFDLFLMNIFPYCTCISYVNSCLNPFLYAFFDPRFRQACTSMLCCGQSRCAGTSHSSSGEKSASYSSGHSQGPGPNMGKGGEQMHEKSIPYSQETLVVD
Experiment: Intracellular cAMP accumulation assay (APJ hcAMP, HTRF)
Format: cell-based
Conditions: HEK293 cells stably expressing human APJ receptor, inhibition of forskolin-mediated cAMP production, Table 1
How it was run: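 Inhibition of forskolin (2 μM)-driven cAMP, with […], measured by HTRF after 30 min room-temperature compound exposure of stably transfected HEK293 cells. cAMP read from a standard curve; variable-slope fit gives EC50, and maximal inhibition is normalised to (Pyr1)apelin-13 as 100%.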

[1] = read-out: hAPJ cAMP EC50 Potency range

Compound	EC50 [1] [nM]	EC50 (hAPJ cAMP EC50 Potency range) [nM]
CCCCc1nc(O)c(S(=O)(=O)c2ccc(-c3cccnc3C)cc2)c(O)c1N(CC)c1cccc(C#N)c1 [Example 175, 3-((2-butyl-4,6-dihydroxy-5-((4-(2-methylpyridin-3-yl)phenyl)sulfonyl)pyri-dine-3-yl)(ethyl)amino)benzonitrile]	0.01 to 10	
CCN(c1cccc(C#N)c1)c1c(-c2ccn(C)n2)nc(O)c(S(=O)(=O)c2ccc(-c3cccc(F)c3C(N)=O)cc2)c1O [Example 215, 4′-((5-((3-cyanophenyl)(ethyl)ami-no)-2,4-dihydroxy-6-(1-methyl-1H-pyrazol-3-yl)pyridin-3-yl)sulfonyl)-3-fluoro-[1,1′-biphenyl]-2-carboxamide]	0.01 to 10	
CCCCc1nc(O)c(C(=O)N2CC[C@H](c3ccccc3)C2)c(O)c1N(c1ccccc1)C(C)C [Example 023, (R)-(6-butyl-2,4-dihydroxy-5-(isopropyl(phenyl)amino)pyridin-3-yl)(3-phenylpyrrolidin-1-yl)methanone]		10 to 100
CCN(c1cccc(C#N)c1)c1c(-c2ccn(C)n2)nc(O)c(S(=O)(=O)c2ccc(-c3ccccc3C(=O)N(C)C)cc2)c1O [Example 210, 4′-((5-((3-cyano-phenyl)(ethyl)amino)-2,4-dihydroxy-6-(1-methyl-1H-pyrazol-3-yl)pyridin-3-yl)sulfonyl)-N,N-dimethyl-[1,1′-biphenyl]-2-carboxamide]	0.01 to 10	
CCCCc1nc(O)c(S(=O)(=O)c2ccc(-c3ccncc3C)cc2)c(O)c1N(CC)c1cccc(C#N)c1 [Example 170, 3-((2-butyl-4,6-dihydroxy-5-((4-(3-methylpyridin-4-yl)phenyl)sulfonyl)pyri-din-3-yl)(ethyl)amino)benzonitrile]	0.01 to 10	
CCCCc1nc(O)c(S(=O)(=O)c2ccc(-c3ccncc3C)cc2)c(O)c1N1CCCOc2ccccc21 [Example 129, 6-butyl-5-(3,4-dihydrobenzo[b][1,4]oxazepin-5(2H)-yl)-3-((4-(3-methylpyridin-4-yl)phenyl)sulfonyl)pyridine-2,4-diol]	0.01 to 10	
CCCCc1nc(O)c(S(=O)(=O)c2ccc(-c3cccnc3C)cc2)c(O)c1N(c1ccccc1)C(C)C [Example 025, 6-butyl-5-(isopropyl(phenyl)amino)-3-((4-(2-methylpyridin-3-yl)phenyl)sulfonyl)pyridine-2,4-diol]	0.01 to 10	
CCCCc1nc(O)c(S(=O)(=O)c2ccc(-c3ccnc(F)c3C)cc2)c(O)c1N(C)c1cccc(Cl)c1 [Example 107, 6-butyl-5-((3-chlorophenyl)(methyl)amino)-3-((4-(2-fluoro-3-methylpyridin-4-yl)phenyl)sulfonyl)pyridine-2,4-diol]	0.01 to 10	
CCCCc1nc(O)c(S(=O)(=O)c2ccc(-c3ccnc(F)c3C)cc2)c(O)c1N(C)c1cccc(F)c1 [Example 106, 6-butyl-3-((4-(2-fluoro-3-methylpyridin-4-yl)phenyl)sulfonyl)-5-((3-fluorophenyl)(methyl)amino)pyridine-2,4-diol]	0.01 to 10	
CCCCc1nc(O)c(S(=O)(=O)c2ccc(-c3ccccc3C(=O)N(C)C)cc2)c(O)c1N1CCCCc2ccccc21 [Example 179, 4′-((6-butyl-2,4-dihydroxy-5-(2,3,4,5-tetrahydro-1H-benzo[b]azepin-1-yl)pyridin-3-yl)sulfonyl)-N,N-dimethyl-[1,1′-biphenyl]-2-carboxamide]	10 to 100	
CCN(c1ccccc1)c1c(-c2cccc(C)c2)nc(O)c(S(=O)(=O)c2ccc(-c3ccnc(F)c3C)cc2)c1O [Example 122, 5-(ethyl(phenyl)amino)-3-((4-(2-fluoro-3-methylpyridin-4-yl)phenyl)sulfonyl)-6-(m-tolyl)pyridine-2,4-diol]	0.01 to 10	
CCCCc1nc(O)c(S(=O)(=O)c2ccc(-c3ccncc3C)cc2)c(O)c1N1CCc2ccccc21 [Example 013, 6-butyl-5-(indolin-1-yl)-3-((4-(3-methylpyridin-4-yl)phenyl)sulfonyl)pyridine-2,4-diol]	0.01 to 10	
CCCCc1nc(O)c(S(=O)(=O)c2ccc(-n3cc(Cl)ccc3=O)cc2)c(O)c1N(CC)c1ccccc1 [Example 082, 1-(4-((6-butyl-5-(ethyl(phenyl)amino)-2,4-dihydroxypyridin-3-yl)sulfonyl)phenyl)-5-chloropyridin-2(1H)-one]	0.01 to 10	
CCCCc1nc(O)c(C(=O)N2CC[C@@H](c3ccccc3)C2)c(O)c1N(C)c1ccccc1 [Example 007, (S)-(6-butyl-2,4-dihydroxy-5-(methyl(phenyl)amino)pyridin-3-yl)(3-phenylpyrrolidin-1-yl)methanone]		10 to 100
CCCCc1nc(O)c(S(=O)(=O)c2ccc(-c3cccnc3C)cc2)c(O)c1N(CC)c1ccccc1 [Example 079, 6-butyl-5-(ethyl(phenyl)amino)-3-((4-(2-methylpyridin-3-yl)phenyl)sulfonyl)pyridine-2,4-diol]	0.01 to 10	
CCCCc1nc(O)c(S(=O)(=O)c2ccc(-c3ccc(F)nc3C)cc2)c(O)c1N(C)c1cccc(OC)c1 [Example 030, 6-butyl-3-((4-(6-fluoro-2-methylpyridin-3-yl)phenyl)sulfonyl)-5-((3-methoxyphenyl)(methyl)amino)pyridine-2,4-diol]	10 to 100	
CCCCc1nc(O)c(S(=O)(=O)c2ccc(-c3ccccc3C(=O)NC)cc2)c(O)c1N(C)c1cccc(C#N)c1 [Example 137, 4′-((6-butyl-5-((3-cyanophenyl)(methyl)amino)-2,4-dihydroxypyridin-3-yl)sulfonyl)-N-methyl-[1,1′-biphenyl]-2-carboxamide]	0.01 to 10	
CCCCc1nc(O)c(S(=O)(=O)c2ccc(-c3ccccc3C(=O)NC)cc2)c(O)c1N(CC)c1cccc(C#N)c1 [Example 185, 4′-((6-butyl-5-((3-cyanophenyl)(ethyl)a-mino)-2,4-dihydroxypyridin-3-yl)sulfonyl)-N-methyl-[1,1′-biphenyl]-2-carboxamide]	0.01 to 10	
CCCCc1nc(O)c(S(=O)(=O)c2ccc(-c3ccc(F)nc3C)cc2)c(O)c1N1CCCOc2ccccc21 [Example 115, 6-butyl-5-(3,4-dihydrobenzo[b][1,4]oxazepin-5(2H)-yl)-3-((4-(6-fluoro-2-methylpyridin-3-yl)phenyl)sulfonyl)pyridine-2,4-diol]	10 to 100	
CC(C)N(c1ccccc1)c1c(-c2ccn(C)n2)nc(O)c(S(=O)(=O)c2ccc(-c3ccc(F)cc3C(N)=O)cc2)c1O [Example 161, 4′-((2,4-dihydroxy-5-(isopropyl(phenyl)amino)-6-(1-methyl-1H-pyrazol-3-yl)pyridin-3-yl)sulfonyl)-4-fluoro-[1,1′-biphenyl]-2-carboxamide]	0.01 to 10	
CCCCc1nc(O)c(S(=O)(=O)c2ccc(-c3ccncc3C)cc2)c(O)c1N(C)c1cccc(F)c1 [Example 104, 6-butyl-5-((3-fluorophenyl)(methyl)amino)-3-((4-(3-methylpyridin-4-yl)phenyl)sulfonyl)pyridine-2,4-diol]	0.01 to 10	
CCN(c1ccccc1)c1c(-c2ccn(C)n2)nc(O)c(S(=O)(=O)c2ccc(-c3ccnc(F)c3C)cc2)c1O [Example 063, 5-(ethyl(phenyl)amino)-3-((4-(2-fluoro-3-methylpyridin-4-yl)phenyl)sulfonyl)-6-(1-methyl-1H-pyrazol-3-yl)pyridine-2,4-diol]	0.01 to 10	
CC(C)N(c1ccccc1)c1c(-c2ccn(C)n2)nc(O)c(S(=O)(=O)c2ccc(-c3ccccc3C(N)=O)cc2)c1O [Example 166, 4′-((2,4-dihydroxy-5-(isopropyl(phen-yl)amino)-6-(1-methyl-1H-pyrazol-3-yl)pyridin-3-yl)sulfonyl)-[1,1′-biphenyl]-2-carboxamide]	0.01 to 10	
CCN(c1ccccc1)c1c(-c2cnn(C)c2)nc(O)c(S(=O)(=O)c2ccc(-c3ccccc3C(=O)N(C)C)cc2)c1O [Example 154, 4′-((5-(ethyl(phenyl)amino)-2,4-dihydroxy-6-(1-methyl-1H-pyrazol-4-yl)pyridin-3-yl)sulfonyl)-N,N-dimethyl-[1,1′-biphenyl]-2-carboxamide]	0.01 to 10	
CCCCc1nc(O)c(C(=O)N2CCC(c3ncc(Cl)cc3F)C2)c(O)c1N(CC)c1ccccc1 (stereo not shown) [Example 070, (6-butyl-5-(ethyl(phenyl)amino)-2,4-dihydroxypyridin-3-yl)(3-(5-chloro-3-fluoropyridin-2-yl)pyrrolidin-1-yl)methanone]		0.01 to 10
CCN(c1ccccc1)c1c(-c2cnn(C)c2)nc(O)c(S(=O)(=O)c2ccc(-c3ccnc(F)c3C)cc2)c1O [Example 149, 5-(ethyl(phenyl)amino)-3-((4-(2-fluoro-3-methylpyridin-4-yl)phenyl)sulfonyl)-6-(1-methyl-1H-pyrazol-4-yl)pyridine-2,4-diol]	0.01 to 10	
CCCCc1nc(O)c(S(=O)(=O)c2ccc(Br)cc2)c(O)c1N(CC)c1ccccc1 [Example 077, 3-((4-bromophenyl)sulfonyl)-6-butyl-5-(ethyl(phenyl)amino)pyridine-2,4-diol]	10 to 100	
CCCCc1nc(O)c(S(=O)(=O)c2ccc(-c3ccc(F)nc3C)cc2)c(O)c1N(CC)c1cccc(C#N)c1 [Example 178, 3-((2-butyl-5-((4-(6-fluoro-2-methylpyridin-3-yl)phenyl)sulfonyl)-4,6-dihydroxypyridin-3-yl)(ethyl)amino)benzonitrile]	0.01 to 10	
